Assay results reported in patent publication US10478437B2, “Combination therapy to enhance the anticancer efficacy of platinum drugs” (University of Pittsburgh-of the Commonwealth System of …, priority 2014, dated 2019).
Where two headings read alike, the source gives them in different places.

How the values were obtained:
[1] = tested on: cisplatin-resistant ovarian cancer cell line A2780cis; test: CellTiter-Blue cell viability assay, compound alone or with cisplatin or carboplatin, 24 h; assay type: cell-based, human; conditions: 24 h; for viability at 10 µM / viability at 20 µM / viability at 50 µM: Homo sapiens, A2780cis, read-out: survival (%) of cells with compound alone
Method: Data were expressed as mean±standard deviation. A Student's t test was used for the comparisons between the treatment with the combination of analogs with cisplatin and with analogs alone. P<0.05 was considered statistically significant. Combination index was calculated using CompuSyn software. A value of 0.3-0.7 for the combination index indicates synergism, 0.1-0.3 indicates strong synergism, and <0.1 indicates very strong synergism (Chou, 2006).
To further validate the activity of the identified 11 active compounds (see FIG. 3), a CellTiter-Blue cell viability assay was performed with increasing concentrations (10 μM, 20 μM and 50 μM) of the disclosed compounds (see FIG. 4 and Table 5). Cisplatin resistant ovarian cancer cells (A2780cis) were treated with a disclosed compound alone, cisplatin alone or a combination of a compound with cisplatin for 24 h to determine the effects of the compounds on cell viability.
Analysis of the effect of the disclosed compounds with another platinum-containing compound, carboplatin, was performed. A2780cis cells were treated with carboplatin alone or with the combination of carboplatin and the disclosed compounds at indicated concentrations for 24 h followed by the analysis of cell viability.

[2] = tested on: cisplatin-resistant ovarian cancer cell line A2780cis; test: Caspase-3/7 activity assay (apoptotic cell death), compound alone or with cisplatin; assay type: cell-based, human; conditions: for caspase-3/7 activity (Lum), compound with cisplatin / caspase-3/7 activity (Lum), compound alone: 20 h; for caspase-3/7 activity (Lum), compound alone: compound 20 μM; for activity in the screen (Caspase-3/7 activity and microscopic examination), active / inactive: alone or in the presence of cisplatin; for activity in the screen (Caspase-3/7 activity and microscopic examination), active / inactive / Caspase-3/7 activity upon combination with cisplatin compared to cisplatin alone or compound alone: in words
Method: Cell proliferation was determined using a CyQUANT Direct Cell Proliferation Assay kit (Invitrogen), the activity of caspase-3/7 was measured using a Caspase-Glo 3/7 Assay Systems (Promega, Madison, Wis.), and the MTS calorimetric survival assay was performed using the CellTiter 96 AQueous One Solution Cell Proliferation Assay kit (Promega, Madison, Wis.), according to the manufacturer's instructions. The survival fractions were calculated after setting untreated control cells at 100%. The data were plotted and curve fitted using GraphPad Prism software. To quantify the number of cells with active caspase-3, cells were fixed with 4% paraformaldehyde (Electron microscopy sciences, Hatfield, Pa.), stained with Alexa Fluor-488 conjugated antibody against cleaved caspase-3 (Asp175) (Cell Signaling Technology, Danvers, Mass.) followed by flow cytometry. An FITC Annexin V Apoptosis Detection Kit (BD PharMingen, San Diego, Calif.) was used to quantify apoptotic cells, according to the manufacturer's instructions.
A Caspase-3/7 assay was performed to evaluate the activity of the 36 compounds of FIG. 1 in vitro in the cisplatin-resistant ovarian cancer cell line, A2780cis, alone or in the presence of cisplatin. A microscopic examination of apoptotic morphologic changes was also carried out right before the measurement of Caspase-3/7 activity, in order to confirm that the data on the activation of the Caspase-3/7 following treatment is consistent with morphological change and reflects cell death.

[3] = compound 10 μM, untreated cells = 100%
[4] = compound 20 μM, untreated cells = 100%
[5] = compound 50 μM, untreated cells = 100%
[6] = compound 10 μM + cisplatin 20 μM
[7] = compound 20 μM + cisplatin 20 μM
[8] = compound 50 μM + cisplatin 20 μM
[9] = Table 1, compound 20 μM with 20 μM cisplatin
[10] = Table 1, mean ± S.D. of triplicates
[11] = Table 3, compound 20 μM with 20 μM of cisplatin

SMILES | caspase-3/7 activity (Lum), compound with cisplatin [2, 11] [Lum] | caspase-3/7 activity (Lum), compound alone ([2]; Table 3) [Lum] | further results
O=c1c2ccccc2[nH]c(=S)n1Cc1cccnc1 [Compound 1-4] |  |  | viability at 10 µM [1, 3]: 95.9 ± 2.4%; viability at 20 µM [1, 4]: 95.6 ± 1.3%; viability at 50 µM [1, 5]: 91.8 ± 2.9%; survival (%) of cells with compound and cisplatin (20 μM) [1, 6]: 89.8 ± 0.1%; survival (%) of cells with compound and cisplatin (20 μM) [1, 7]: 61.2 ± 3.4%; survival (%) of cells with compound and cisplatin (20 μM) [1, 8]: 20.9 ± 1.3%; caspase-3/7 activity (Lum), compound with cisplatin [2, 9]: 93 ± 5 Lum; caspase-3/7 activity (Lum), compound alone [2, 10]: 13 ± 1 Lum; caspase-3/7 activity (Lum), compound alone ([2]; Table 2): 13 ± 1 Lum; activity in the screen (Caspase-3/7 activity and microscopic examination), active / inactive [2]: active; Caspase-3/7 activity upon combination with cisplatin compared to cisplatin alone or compound alone [2]: increase in Caspase-3/7 activity
Cc1cccc(-n2c(=S)[nH]c3cc(Cl)ccc3c2=O)c1C [Compound 1-21] |  |  | viability at 10 µM [1, 3]: 102 ± 1.4%; viability at 20 µM [1, 4]: 100 ± 1.5%; viability at 50 µM [1, 5]: 84.9 ± 2.9%; survival (%) of cells with compound and cisplatin (20 μM) [1, 6]: 90.8 ± 1.4%; survival (%) of cells with compound and cisplatin (20 μM) [1, 7]: 63.1 ± 6.8%; survival (%) of cells with compound and cisplatin (20 μM) [1, 8]: 26.7 ± 2.0%; caspase-3/7 activity (Lum), compound with cisplatin [2, 9]: 90 ± 6 Lum; caspase-3/7 activity (Lum), compound alone [2, 10]: 17 ± 3 Lum; caspase-3/7 activity (Lum), compound alone ([2]; Table 2): 17 ± 3 Lum; activity in the screen (Caspase-3/7 activity and microscopic examination), active / inactive [2]: active; Caspase-3/7 activity upon combination with cisplatin compared to cisplatin alone or compound alone [2]: increase in Caspase-3/7 activity
O=c1c2ccccc2[nH]c(=S)n1Cc1ccccc1 [Compound 1-30] |  |  | viability at 10 µM [1, 3]: 95 ± 2.6%; viability at 20 µM [1, 4]: 95.4 ± 0.9%; viability at 50 µM [1, 5]: 98.1 ± 0.9%; survival (%) of cells with compound and cisplatin (20 μM) [1, 6]: 73.4 ± 6.9%; survival (%) of cells with compound and cisplatin (20 μM) [1, 7]: 52.4 ± 1.2%; survival (%) of cells with compound and cisplatin (20 μM) [1, 8]: 53.2 ± 5.0%; caspase-3/7 activity (Lum), compound with cisplatin [2, 9]: 111 ± 8 Lum; caspase-3/7 activity (Lum), compound alone [2, 10]: 18 ± 2 Lum; caspase-3/7 activity (Lum), compound alone ([2]; Table 2): 18 ± 2 Lum; activity in the screen (Caspase-3/7 activity and microscopic examination), active / inactive [2]: active; Caspase-3/7 activity upon combination with cisplatin compared to cisplatin alone or compound alone [2]: increase in Caspase-3/7 activity
O=C1NC(=S)NC(=O)C1=Cc1c[nH]c2ccccc12 [Compound 2-7] | 41 ± 3 | 25 ± 1 | viability at 10 µM [1]: 97 ± 1.5%; viability at 20 µM [1]: 93.3 ± 3.6%; viability at 50 µM [1]: 47.2 ± 1.8%; survival (%) of cells with compound and cisplatin (20 μM) [1, 6]: 91.9 ± 14.0%; survival (%) of cells with compound and cisplatin (20 μM) [1, 7]: 76.1 ± 6.6%; survival (%) of cells with compound and cisplatin (20 μM) [1, 8]: 39.4 ± 5.2%; caspase-3/7 activity (Lum), compound alone ([2]; Table 4): 25 ± 1 Lum; activity in the screen (Caspase-3/7 activity and microscopic examination), active / inactive [2]: active
O=C(NC(=S)NCC1CCCO1)c1ccccc1 (stereo not drawn) [Compound 2-9] | 20 ± 2 | 8 ± 1 | 
Cc1c(NC(=S)NC(=O)C(C)(C)C)c(=O)n(-c2ccccc2)n1C [Compound 2-10] | 20 ± 2 | 7 ± 2 | 
CC(C)C(=O)NC(=S)Nc1ccc(F)c(Cl)c1 [Compound 2-11] | 17 ± 2 | 9 ± 1 | 
O=C(CNC(=S)NC(=O)c1ccco1)c1ccccc1 [Compound 2-12] | 18 ± 1 | 7 ± 1 | 
O=C(NC(=S)NC1CCS(=O)(=O)C1)c1ccc(F)cc1 (stereo not drawn) [Compound 2-13] | 20 ± 3 | 8 ± 1 | 
O=C(NC(=S)NC1CCS(=O)(=O)C1)c1ccccc1 (stereo not drawn) [Compound 2-14] | 21 ± 2 | 8 ± 1 | 
COCCCNC(=S)NC(=O)c1ccc(F)cc1 [Compound 2-15] | 18 ± 3 | 8 ± 1 | 
O=C(NC(=S)Nc1ccc(F)c(Cl)c1)C1CCCCC1 [Compound 2-16] | 17 ± 1 | 8 ± 1 | 
O=C(NC(=S)NCCN1CCOCC1)c1ccc(F)cc1 [Compound 2-17] | 18 ± 1 | 7 ± 2 | 
O=C(NC(=S)NCCN1CCOCC1)c1ccc(Cl)cc1 [Compound 2-18] | 17 ± 1 | 9 ± 1 | 
CC(C)(C)C(=O)NC(=S)Nc1sc2c(c1C(N)=O)CCCC2 [Compound 2-20] | 15 ± 2 | 8 ± 1 | 
O=C(NC(=S)Nc1ccccc1F)c1ccco1 [Compound 2-21] | 25 ± 1 | 8 ± 1 | 
O=C(CNC(=S)NC(=O)c1ccc(F)cc1)c1ccccc1 [Compound 2-22] | 26 ± 2 | 9 ± 1 | 
Cc1ccc(NC(=S)NC(=O)c2ccc(F)cc2)nc1 [Compound 2-23] | 22 ± 2 | 7 ± 0 | activity in the screen (Caspase-3/7 activity and microscopic examination), active / inactive [2]: inactive
Cc1ccc(C(=O)NC(=S)Nc2ccc(C)cn2)cc1 [Compound 2-24] | 19 ± 5 | 7 ± 1 | activity in the screen (Caspase-3/7 activity and microscopic examination), active / inactive [2]: inactive
COc1ccc(C(C)=C2C(=O)NC(=S)NC2=O)cc1 [Compound 2-25] | 24 ± 2 | 6 ± 0 | 
COc1ccc(C(C)=C2C(=O)NC(=S)NC2=O)cc1OC [Compound 2-26] | 21 ± 4 | 6 ± 0 | 
CCCN1C(=O)C(=C(C)NC2CCC(C)CC2)C(=O)NC1=S (stereo not drawn) [Compound 2-27] | 19 ± 3 | 7 ± 1 | 
O=C(NC(=S)NCCc1ccccc1)C1CCCCC1 [Compound 2-28] | 18 ± 2 | 7 ± 1 | 
NC(=O)c1ccccc1NC(=S)NC(=O)c1ccco1 [Compound 2-29] | 19 ± 3 | 7 ± 1 | 
O=C(NC(=S)NCc1ccccc1)C1CCCCC1 [Compound 2-30] | 20 ± 5 | 6 ± 0 | 
